Measured values published in patent US6552080B1, “Fungicidal compounds having a fluorovinyl-or fluoropropenyl-oxyphenyloxime moiety and process for the preparation thereof” (Korea Research Institute of Chemical Technology, priority 1999, dated 2003).
Read-outs that look alike come from different tables or passages of the source.

Legend:
Rhizoctonia solani AG-1 = experiment: Fungicidal activity against Rice Sheath Blight (RSB) disease; conditions: Rice Sheath Blight
Erysiphae graminis = experiment: Fungicidal activity against Barley Powdery Mildew (BPM) disease; type: in vivo; conditions: Barley Powdery Mildew
Botrytis cinerae = experiment: Fungicidal activity against Cucumber Gray Mold Rot (CGM) disease; type: in vivo; conditions: Cucumber Gray Mold Rot
Phytophthora infestans = type: in vivo; conditions: Tomato Late Blight
[1] = test system: Pyricularia oryzae Carvara KA301; type: in vivo; conditions: Rice Blast
Puccinia recondita = experiment: Fungicidal activity against Wheat Leaf Rust (WLR) disease; type: in vivo; conditions: Wheat Leaf Rust

| SMILES | RSB (Fungicidal Activities, C.V.) (Rhizoctonia solani AG-1; concentration 50 ppm) | BPM (Fungicidal Activities, C.V.) (Erysiphae graminis; concentration 2 ppm) | BPM (Fungicidal Activities, C.V.) (Erysiphae graminis; concentration 50 ppm) | CGM (Fungicidal Activities, C.V.) (Botrytis cinerae; concentration 50 ppm) | TLB (Fungicidal Activities, C.V.) (Phytophthora infestans; concentration 50 ppm) | RCV (Fungicidal Activities, C.V.) ([1]; concentration 2 ppm) | RCV (Fungicidal Activities, C.V.) ([1]; concentration 50 ppm) | WLR (Fungicidal Activities, C.V.) (Puccinia recondita; concentration 2 ppm) | WLR (Fungicidal Activities, C.V.) (Puccinia recondita; concentration 50 ppm) | RSB (Fungicidal Activities, C.V.) (Rhizoctonia solani AG-1; concentration 2 ppm) | RSB (Fungicidal Activities, C.V.) (Rhizoctonia solani AG-1; concentration 10 ppm) | BPM (Fungicidal Activities, C.V.) (Erysiphae graminis; concentration 10 ppm) | TLB (Fungicidal Activities, C.V.) (Phytophthora infestans; concentration 2 ppm) | TLB (Fungicidal Activities, C.V.) (Phytophthora infestans; concentration 10 ppm) | RCV (Fungicidal Activities, C.V.) ([1]; concentration 10 ppm) | WLR (Fungicidal Activities, C.V.) (Puccinia recondita; concentration 10 ppm) | CGM (Fungicidal Activities, C.V.) (Botrytis cinerae; concentration 2 ppm) | CGM (Fungicidal Activities, C.V.) (Botrytis cinerae; concentration 10 ppm) |
| --- | --- | --- | --- | --- | --- | --- | --- | --- | --- | --- | --- | --- | --- | --- | --- | --- | --- | --- |
| CNC(=O)C(=COC)c1ccccc1CON=C(C)c1cccc(OC(F)=Cc2cccc(Cl)c2)c1 [Compound 62] | 0% | 0% | 100% | 25% | 0% | 92% | 96% | 83% | 99% |  |  |  |  |  |  |  |  |  |
| CNC(=O)C(=COC)c1ccccc1CON=C(C)c1cccc(OC(F)=Cc2ccc3c(c2)OCO3)c1 [Compound 63] | 11% |  | 97% | 33% | 0% |  | 96% |  | 90% |  |  |  |  |  |  |  |  |  |
| CO/N=C(/C(=O)OC)c1ccccc1CON=C(C)c1cccc(OC(F)=Cc2ccccc2)c1 [Compound 64] | 85% | 100% | 100% | 75% | 95% | 100% | 100% | 99% | 100% | 45% | 65% | 100% | 87% | 90% | 100% | 100% |  |  |
| CON=C(C(=O)OC)c1ccccc1CON=C(C)c1cccc(OC(F)=Cc2cccc(C)c2)c1 [Compound 65] | 100% | 99% | 100% | 71% | 0% | 100% | 100% | 99% | 100% | 30% | 60% | 100% |  |  | 100% | 100% |  |  |
| CON=C(C(=O)OC)c1ccccc1CON=C(C)c1cccc(OC(F)=Cc2ccc(C)cc2)c1 [Compound 66] | 100% | 100% | 100% | 75% | 0% | 100% | 100% | 99% | 100% | 20% | 65% | 100% |  |  | 100% | 100% |  |  |
| CON=C(C(=O)OC)c1ccccc1CON=C(C)c1cccc(OC(F)=Cc2ccc(C)c(C)c2)c1 [Compound 67] | 100% | 99% | 100% | 37% | 0% | 100% | 100% | 99% | 100% | 10% | 43% | 100% |  |  | 100% | 100% |  |  |
| CON=C(C(=O)OC)c1ccccc1CON=C(C)c1cccc(OC(F)=Cc2cc(C)cc(C)c2)c1 [Compound 68] | 100% | 100% | 100% | 56% | 20% | 100% | 100% | 99% | 100% | 30% | 70% | 100% |  |  | 100% | 100% |  |  |
| CCc1ccc(C=C(F)Oc2cccc(C(C)=NOCc3ccccc3C(=NOC)C(=O)OC)c2)cc1 [Compound 69] | 100% | 99% | 100% | 25% | 60% | 100% | 100% | 97% | 100% | 30% |  |  | 25% |  |  |  |  |  |
| CCCCc1ccc(C=C(F)Oc2cccc(C(C)=NOCc3ccccc3C(=NOC)C(=O)OC)c2)cc1 [Compound 70] | 85% | 83% | 100% | 50% | 0% | 99% | 100% | 93% | 97% | 20% |  |  | 12% |  |  |  |  |  |
| CON=C(C(=O)OC)c1ccccc1CON=C(C)c1cccc(OC(F)=Cc2cccc(OC)c2)c1 [Compound 71] | 100% | 100% | 100% | 25% | 50% | 100% | 100% | 98% | 100% | 35% |  |  | 25% |  |  |  |  |  |
| CON=C(C(=O)OC)c1ccccc1CON=C(C)c1cccc(OC(F)=Cc2ccc(OC)cc2)c1 [Compound 72] | 65% | 100% | 100% | 0% | 66% | 100% | 98% | 98% | 100% | 25% |  |  | 0% |  |  |  |  |  |
| CCOc1ccc(C=C(F)Oc2cccc(C(C)=NOCc3ccccc3C(=NOC)C(=O)OC)c2)cc1 [Compound 73] | 100% | 100% | 100% | 0% | 60% | 100% | 95% | 98% | 100% | 25% |  |  | 0% |  |  |  |  |  |
| CON=C(C(=O)OC)c1ccccc1CON=C(C)c1cccc(OC(F)=Cc2ccc(F)cc2)c1 [Compound 74] | 100% | 100% | 100% | 72% | 56% | 100% | 100% | 99% | 100% | 25% |  |  | 12% |  |  |  |  |  |
| CON=C(C(=O)OC)c1ccccc1CON=C(C)c1cccc(OC(F)=Cc2cccc(Cl)c2)c1 [Compound 75] | 100% | 100% | 100% | 0% | 66% | 100% | 100% | 98% | 100% | 25% |  |  | 0% |  |  |  |  |  |
| CON=C(C(=O)OC)c1ccccc1CON=C(C)c1cccc(OC(F)=Cc2ccc(Cl)cc2)c1 [Compound 76] | 100% | 100% | 100% | 62% | 0% | 100% | 100% | 100% | 100% | 35% |  |  | 0% |  |  |  |  |  |
| CNC(=O)/C(=N/OC)c1ccccc1CON=C(C)c1cccc(OC(F)=Cc2ccccc2)c1 [Compound 77] | 100% | 100% | 100% | 85% | 80% | 100% | 100% | 100% | 100% | 40% | 57% | 100% | 50% | 88% | 100% | 100% | 21% | 36% |
